The values below come from a melting point compilation (Tetko et al.; mined from patent text by program, amines drawn as free bases though some values may be those of a salt).

Broadly, the melting point is the temperature of the solid-liquid transition.

Each structure is given as a SMILES string.

In turn, `CCCc1oc(-c2ccccc2)nc1COc1ccc(CO)cc1` yielded a melting point of 79 to 80 °C.

Regarding `COC1=C(OC)CC(C)(CNCCCCc2ccc(NC(=O)c3cccc4c(=O)c5cc(F)ccc5sc34)cc2)C=C1` (stereo not drawn), the melting point is 168 °C.

As to `Clc1ccc2nc(Cl)c(I)n2c1`, the melting point is 234 to 235 °C.

For `COc1ccc2cc(CC(=O)OCC(C)=O)ccc2c1`, the melting point fell in the range of 122 to 124 °C.

For the compound `CC=Cc1cnn(-c2c(Cl)cc(C(F)(F)F)cc2Cl)n1`, the melting point amounted to 35 °C.

`Clc1ccc2c(c1)CNc1ccccc1O2` gave a melting point of 123 to 125 °C.

On to `N#CCCn1c(-c2ccccc2)cc2ccccc21`, for which the melting point is 90 °C.

Consider `COC(=O)c1nc(CN(C)C)n(-c2ccc(Cl)cc2C(=O)c2ccccc2)n1`, for which the melting point was in the range of 118 to 121 °C.

`CCOC(=O)c1cc2c(nc(C)n2C)c2c1CCC(c1ccccc1)O2` (stereo not drawn) gave a melting point of 172 to 173 °C.

Take `CC(C)(C)OC(=O)N1CCCC(C2=C(C#N)C(c3cccc4nonc34)c3c[nH]nc3N2)C1` (stereo not drawn): the melting point worked out at 229 °C.

Turning to `CCOC(=O)Nc1ccc(Cl)c(N)n1`, the melting point is 66 to 70 °C.

The compound `O=c1[nH]c(=O)n(C2CC(O)C(CO)O2)cc1-c1ccccn1` (stereo not drawn) gave a melting point of 201 to 203 °C.

As to `CCc1ccc(C(=O)O)c([N+](=O)[O-])c1`, the melting point is 111 °C.

Compound `COc1nc2cc(Cl)cc(Cl)c2cc1Br` yielded a melting point of 135 to 138 °C.

Take `Cc1cc2c(cc1C)-n1cnnc1C=C(c1ccc(-n3c(C)nc4cnccc43)cc1)N2`: the melting point was in the range of 302 to 304 °C.

For the compound `Cc1cc(C(C#N)=CN(C)C)cc(C)n1`, the melting point came out at 149 °C.

For `O=C1c2ccccc2-n2cnc(-c3nc(CCl)cs3)c2[C@@H]2CCN12`, the melting point fell in the range of 248 to 249 °C.

Compound `O=C(O)c1ccc(-c2nc(-c3ccc(Br)cc3)cs2)cc1` returned a melting point of over 300 °C.

In turn, `Cc1ccc(-c2cccs2)cc1C` yielded a melting point of 49 to 51 °C.

Compound `O=CNNc1ccc(NC(=S)Nc2ccccc2)cc1` had a melting point of 188 °C.

`C#CCOc1cc(-c2ccc(S(C)(=O)=O)cc2)c(-c2ccc(F)cc2)c(C(F)(F)F)n1`: the melting point is 138 to 139 °C.

On to `N#Cc1ccc2c(c1)S(=O)c1ccccc1CC2=O` (stereo not drawn), for which the melting point lay in the range of 219 to 221 °C.

`Cc1csc2c(=O)n(CCC(C(=O)NO)N(C)S(=O)(=O)c3ccc(Oc4ccccc4)cc3)c(=O)[nH]c12` (stereo not drawn) had a melting point of 170 to 171 °C.

Consider `CCOC(=O)C1=C(C)NC(=S)N(C(=O)OCC)C1c1cccc(C)c1` (stereo not drawn), for which the melting point lay within 93 to 95 °C.

On to `CC(=O)Nc1c([N+](=O)[O-])cc(Br)c2c1CN(C(C)=O)CC2`, for which the melting point was in the range of 173 to 175 °C.

`CON(C)C(=O)c1cc(-n2c(Cl)nc(C(F)(F)F)cc2=O)c(F)cc1Cl`: the melting point was 183 °C.

Compound `O=C(O)c1ccc(OCCCc2ccc(OCCCCOc3ccccc3)cc2)c(C(=O)N2CCC(C(=O)O)CC2)c1` returned a melting point of 142 to 143 °C.

`CC(=O)c1ccc(OCCCN2CCC(c3noc4cc(F)ccc34)CC2)cc1C` gave a melting point of 113 to 114 °C.

Regarding `Cc1cc(=O)[nH]c2ccc(C(O)(C(F)(F)F)C(F)(F)F)cc12`, the melting point fell in the range of 157 to 158 °C.

Turning to `Clc1ccc2[nH]c3c(c2c1)CCC1(C3)OCCO1`, the melting point lay within 128 to 138 °C.

`Cc1c(CC(=O)O)c2cc(C(=O)C(C)C)cc3c2n1CCC3` gave a melting point of 162 °C.

Turning to `CCCCCCc1ccc(-n2c(-c3ccc(C)cc3)cc(OC)c2-c2ccc(C)cc2)cc1`, the melting point lay within 128 to 130 °C.

As to `NC(=O)Nc1c(C(O)(C(F)(F)F)C(F)(F)F)ccc2c1CCCC2`, the melting point fell in the range of 157 to 159 °C.

Consider `CCC(C)(C)c1cc(-c2cccc(C=C3SC(N4CCOCC4)=NC3=O)c2)ccc1O`, for which the melting point was in the range of 174 to 176 °C.

`Cc1nc(NC(=O)c2ccc(OC(F)(F)F)cc2)sc1C(=O)NCc1ccccc1`: the melting point was in the range of 168 to 170 °C.

On to `O=C(C=Cc1cccc(S(=O)(=O)NCc2ccco2)c1)NO`, for which the melting point was 165 °C.

For the compound `c1cc(CC2CCNC3CCCN23)ccc1CC1CCNC2CCCN12` (stereo not drawn), the melting point was found to be 110 °C.

Consider `CN1CCN(C)C(c2ccc(Nc3nc(Br)cn(C)c3=O)cc2)C1=O` (stereo not drawn), for which the melting point was 206 to 207 °C.

The compound `COc1ccccc1C1(Cc2ccccc2)C(=O)N(C)c2ccccc21` (stereo not drawn) returned a melting point of 174 to 176 °C.

In turn, `O=C(c1ccc(-c2ccccc2)cc1Cl)N1CCCC(Cc2nnn[nH]2)c2ccccc21` (stereo not drawn) returned a melting point of 191 to 194 °C.

Take `O=c1cnc(-c2cc(-c3ccsc3)cc(-c3ccsc3)c2)nn1CC(F)(F)F`: the melting point fell in the range of 189 to 191 °C.

In turn, `c1ccc(OCCSCc2nnc(-c3ccc(OCCCCN4CCOCC4)cc3)o2)cc1` came in with a melting point of 64 to 67 °C.

`O=C(N[C@H](Cc1cccc(OC(F)(F)C(F)F)c1)[C@@H](O)c1ccc(Oc2ccccc2)cc1)c1cccc2c1C=CCCC2` (racemic): the melting point lay within 95 to 96 °C.

Regarding `O=C1c2ccccc2S(=O)(=O)N1c1c(F)c(F)nc(F)c1F`, the melting point is 164 to 165 °C.

Consider `Oc1ccccc1C1OCCO1`, for which the melting point fell in the range of 67 to 70 °C.

`Cc1cc(-c2cc(C(F)(F)F)nn2-c2ccc(S(N)(=O)=O)c(Cl)c2)ccc1-c1cscn1` registered a melting point of 113 to 115 °C.

In turn, `OC(COc1cccc2[nH]ncc12)CN1CCC(COc2ccccc2)CC1` (stereo not drawn) yielded a melting point of 141 to 142 °C.

As for `CC(=O)NC1=C(N2CCN(Cc3ccccc3)CC2)C(=O)c2ccccc2C1=O`, the melting point fell in the range of 153 to 155 °C.

The compound `COC(=O)C1COC(c2ncn3c2CN(C)C(=O)c2c(Cl)cccc2-3)=N1` (stereo not drawn) registered a melting point of 216 to 218 °C.

On to `CCCCc1nnc(-c2ccco2)n1Cc1ccc(NC(=O)c2ccccc2C(=O)O)cc1`, for which the melting point lay in the range of 170 to 171 °C.

On to `O=[N+]([O-])c1ccccc1N1CCc2ccccc21`, for which the melting point was in the range of 62 to 64 °C.

The compound `COc1cc2c(cc1OCc1ccccc1)CCN(C(=O)c1cc(OC)c(OC)c(OC)c1)C2` showed a melting point of 63 to 64 °C.

Consider `O=C(O)/C=C/c1ccc(/C=C/c2ccncc2)nc1`, for which the melting point is over 250 °C.

For the compound `O=C1N(CC2CCCO2)c2ccccc2C12COc1cc3c(cc12)CCCC3` (stereo not drawn), the melting point fell in the range of 139 to 141 °C.

In turn, `CN(C)C=NC(=N[N+](=O)[O-])NC1CC1` had a melting point of 120 to 122 °C.

`CCCCCCCC[C@H](CC(=O)OC(C)(C)C)C(=O)N1C(=O)OC[C@@H]1C(C)C` yielded a melting point of 58 to 59 °C.

`COC(=O)Cc1c(O)ncnc1O` gave a melting point of over 200 °C.

Compound `COc1ccc2c(c1)N(CC(=O)O)C(=O)C(N)CC2` (stereo not drawn) registered a melting point of over 300 °C.

The compound `O=C1c2ccccc2C(=O)N1CCCOc1ccncc1` had a melting point of 81 to 82 °C.

Regarding `Cc1cc(=O)n(-c2cc(C(=O)O)c(Cl)cc2F)c(=O)n1C`, the melting point lay in the range of 236 to 239 °C.

The compound `CN1C(=O)C(Cc2ccccc2)Oc2ccc(N)cc21` (stereo not drawn) yielded a melting point of 82 to 85 °C.

`O=C(CN1CCN(c2cnccn2)CC1)N1CCC(CO)(c2cccc(C(F)(F)F)c2)CC1` had a melting point of 223 °C.

As to `O=C(NC[C@H]1CN(c2cc(F)c(N3CCC(n4ncnn4)CC3)c(F)c2)C(=O)O1)C(Cl)Cl`, the melting point was in the range of 160 to 162 °C.

As to `Cn1cnc(COc2nn3c(-c4cnccn4)nnc3cc2-c2ccccc2)n1`, the melting point fell in the range of 257 to 258 °C.

`N[C@@H](Cc1ccccc1)C(=O)N(CC1CC(Cl)=NO1)C(=O)OCc1ccccc1` (stereo partly drawn) registered a melting point of 141 to 148 °C.

As for `COc1cc2c(c(C(C)(C)C)c1)OC(=O)C2=C1C(=O)Nc2c(Br)cc(Br)cc21`, the melting point lay within 303 to 314 °C.

Compound `CCOc1cc(-c2cc(C(F)(F)F)n3ncc(C(=O)Nc4cccc(S(=O)(=O)N5CCOCC5)c4)c3n2)ccc1C(F)(F)F` gave a melting point of 235 °C.

The compound `CCc1[nH]c(=O)n(-c2cc(C(=O)OC(C)C)c(Cl)cc2F)c(=O)c1C` showed a melting point of 192 to 194 °C.

`COc1ccc(Oc2cccc3ncnc(NC(=O)Nc4cccc(OC)c4)c23)cc1` yielded a melting point of 209 to 210 °C.

In turn, `CCCCCCCCCCCCCCCCOCCC(O)CO` (stereo not drawn) had a melting point of 60 to 61 °C.

`Cc1nc(Sc2ccc(C(=O)O)cn2)sc1CC(=O)O` came in with a melting point of 226 to 228 °C.

Regarding `CCCCc1ncc(C=O)n1Cc1ccc(C(=O)O)c2ccccc12`, the melting point worked out at 182 °C.

Compound `COc1ccc(N2C(=O)Cc3ccccc32)cc1Cl` had a melting point of 165 to 167 °C.

In the case of `O=[N+]([O-])c1ccccc1NCc1cc(Cl)cc(Cl)c1`, the melting point was 138 to 140 °C.

Take `c1ccc(-c2nsc(N3CCN(c4ccccn4)CC3)n2)cc1`: the melting point lay in the range of 137 to 138 °C.

Turning to `CCCC(C)(Cl)Cn1ncc(OCc2ccc(CC)cc2)c(Cl)c1=O` (stereo not drawn), the melting point was 81 to 83 °C.

As to `COC(=O)c1ccc(C#Cc2ccc(O)c(C34CC5CC(CC(C5)C3)C4)c2)s1`, the melting point fell in the range of 207 to 208 °C.

For the compound `S=C1CNCCN1Cc1ccccc1`, the melting point is 70 to 73 °C.

In the case of `CN(C)c1ccc(-c2cnc3[nH]cc(C(=O)N[C@@H](C(=O)N4CC(C#N)C4)C4CC4)c3n2)cc1`, the melting point was 175 to 180 °C.

Consider `CC(=O)CCc1ccc(C(=O)Nc2ccc3cc(CN4CCCC4)cnc3c2C)cc1`, for which the melting point was 106 to 108 °C.

`Cc1nc(N)c2nc(CONC(C)C)n(CCCCNC(=O)C(C)C)c2c1C` displayed a melting point of 156 to 157 °C.

`CCOCc1nc2c(N)nc3cc(-c4cncc(OC)c4)ccc3c2n1CC(C)(C)OCCS(C)(=O)=O` returned a melting point of 186 to 188 °C.

`COc1cc2c(cc1O)CCN(c1cc(N)c3cc(OC)c(OC)cc3n1)C2`: the melting point is 250 to 251 °C.

`COc1cc(-c2cc(=O)c3c(OC)cc(OC)c(C4=CCN(C)CC4)c3o2)cc(OC)c1OC` had a melting point of 211 to 212 °C.

`Cn1cc(CNC(=O)c2cc(N3CCN(Cc4ccc(F)cc4)C3=O)n[nH]2)cn1` showed a melting point of 244 to 245 °C.

For the compound `Nc1cc(C(=O)O)cc(S(N)(=O)=O)c1NCCc1ccccc1`, the melting point is 194 to 195 °C.

As to `Cn1c2ccccc2c2ccc3c(c21)C(=O)OC3=O`, the melting point was over 300 °C.

`Cc1cc(S(=O)(=O)c2ccc(N)cc2)cc(N(C)C)n1` had a melting point of 157 to 159 °C.
